Measurements reported in PubChem BioAssay (NCI).
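Compound exposure: 48 hours, 5 concentrations, 96-well plates. GI50: concentration for 50% inhibition of growth. TGI denotes the concentration required for complete inhibition of growth.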

What was measured:
Assay in all cases: DTP human tumour cell line panel, 48 h
MDA-MB-231 breast = test system: MDA-MB-231 breast
A549 NSCLC = test system: A549 NSCLC
SN12C renal = test system: SN12C renal
CCRF-CEM leukemia = test system: CCRF-CEM leukemia
HCC-2998 colon = test system: HCC-2998 colon
UACC-257 melanoma = test system: UACC-257 melanoma
NCI/ADR-RES ovarian = test system: NCI/ADR-RES ovarian
RXF 393 renal = test system: RXF 393 renal
IGROV1 ovarian = test system: IGROV1 ovarian
HCT-116 colon = test system: HCT-116 colon
A498 renal = test system: A498 renal
MDA-MB-435 = test system: MDA-MB-435
HT29 colon = test system: HT29 colon
SNB-19 CNS = test system: SNB-19 CNS
KM12 colon = test system: KM12 colon
UACC-62 melanoma = test system: UACC-62 melanoma
NCI-H226 lung = test system: NCI-H226 lung
786-0 renal = test system: 786-0 renal
HOP-62 NSCLC = test system: HOP-62 NSCLC
LOX IMVI melanoma = test system: LOX IMVI melanoma
EKVX NSCLC = test system: EKVX NSCLC
SF-295 CNS = test system: SF-295 CNS
OVCAR-5 ovarian = test system: OVCAR-5 ovarian
MCF7 breast = test system: MCF7 breast
DU-145 prostate = test system: DU-145 prostate
RPMI-8226 leukemia = test system: RPMI-8226 leukemia
HOP-92 NSCLC = test system: HOP-92 NSCLC
HL-60(TB) leukemia = test system: HL-60(TB) leukemia
HCT-15 colon = test system: HCT-15 colon
SF-268 CNS = test system: SF-268 CNS
SK-MEL-5 melanoma = test system: SK-MEL-5 melanoma
SK-MEL-28 melanoma = test system: SK-MEL-28 melanoma
NCI-H460 lung = test system: NCI-H460 lung
U251 CNS = test system: U251 CNS
HS 578T breast = test system: HS 578T breast
MOLT-4 leukemia = test system: MOLT-4 leukemia
UO-31 renal = test system: UO-31 renal
TK-10 renal = test system: TK-10 renal
MALME-3M melanoma = test system: MALME-3M melanoma
SK-MEL-2 melanoma = test system: SK-MEL-2 melanoma
OVCAR-3 ovarian = test system: OVCAR-3 ovarian
SW-620 colon = test system: SW-620 colon
CAKI-1 renal = test system: CAKI-1 renal
M14 melanoma = test system: M14 melanoma
SNB-75 CNS = test system: SNB-75 CNS
NCI-H522 lung = test system: NCI-H522 lung
SK-OV-3 ovarian = test system: SK-OV-3 ovarian
BT-549 breast = test system: BT-549 breast
SF-539 CNS = test system: SF-539 CNS
T-47D breast = test system: T-47D breast
ACHN renal = test system: ACHN renal
PC-3 prostate = test system: PC-3 prostate
OVCAR-8 ovarian = test system: OVCAR-8 ovarian
OVCAR-4 ovarian = test system: OVCAR-4 ovarian
COLO 205 colon = test system: COLO 205 colon
K-562 leukemia = test system: K-562 leukemia
NCI-H23 lung = test system: NCI-H23 lung

N#Cc1cc(-c2ccnc(Nc3ccc(NC(=O)CCl)cc3)n2)ccc1N1CCCC1
GI50 (MDA-MB-231 breast): 2.82 µM | TGI (MDA-MB-231 breast): 10.1 µM | GI50 (A549 NSCLC): 5.27 µM | TGI (A549 NSCLC): 14.7 µM | GI50 (SN12C renal): 0.818 µM | TGI (SN12C renal): 4.59 µM | GI50 (CCRF-CEM leukemia): 0.738 µM | TGI (CCRF-CEM leukemia): > 25 µM | GI50 (HCC-2998 colon): 4.96 µM | TGI (HCC-2998 colon): 9.14 µM | GI50 (UACC-257 melanoma): 5.04 µM | TGI (UACC-257 melanoma): 11.6 µM | GI50 (NCI/ADR-RES ovarian): 1.14 µM | TGI (NCI/ADR-RES ovarian): > 25 µM | GI50 (RXF 393 renal): 0.779 µM | TGI (RXF 393 renal): 2.69 µM | GI50 (IGROV1 ovarian): 0.514 µM | TGI (IGROV1 ovarian): 1.18 µM | GI50 (HCT-116 colon): 0.684 µM | TGI (HCT-116 colon): 1.88 µM | GI50 (A498 renal): 3.88 µM | TGI (A498 renal): 9.92 µM | GI50 (MDA-MB-435): 0.716 µM | TGI (MDA-MB-435): 2.7 µM | GI50 (HT29 colon): 0.68 µM | TGI (HT29 colon): 4.8 µM | GI50 (SNB-19 CNS): 4.87 µM | TGI (SNB-19 CNS): 16.7 µM | GI50 (KM12 colon): 3.84 µM | TGI (KM12 colon): 10.2 µM | GI50 (UACC-62 melanoma): 2.22 µM | TGI (UACC-62 melanoma): 5.99 µM | GI50 (NCI-H226 lung): 0.723 µM | TGI (NCI-H226 lung): 1.66 µM | GI50 (786-0 renal): 0.649 µM | TGI (786-0 renal): 6.14 µM | GI50 (HOP-62 NSCLC): 4.64 µM | TGI (HOP-62 NSCLC): 18.8 µM | GI50 (LOX IMVI melanoma): 0.45 µM | TGI (LOX IMVI melanoma): 0.865 µM | GI50 (EKVX NSCLC): 22.6 µM | TGI (EKVX NSCLC): > 25 µM | GI50 (SF-295 CNS): 5.11 µM | TGI (SF-295 CNS): 13.9 µM | GI50 (OVCAR-5 ovarian): 5.4 µM | TGI (OVCAR-5 ovarian): 12.7 µM | GI50 (MCF7 breast): 0.809 µM | TGI (MCF7 breast): 3.64 µM | GI50 (DU-145 prostate): 4.17 µM | TGI (DU-145 prostate): 16.5 µM | GI50 (RPMI-8226 leukemia): 1.7 µM | TGI (RPMI-8226 leukemia): 22.7 µM | GI50 (HOP-92 NSCLC): 4.22 µM | TGI (HOP-92 NSCLC): > 25 µM | GI50 (HL-60(TB) leukemia): 5.1 µM | TGI (HL-60(TB) leukemia): > 25 µM | GI50 (HCT-15 colon): 0.734 µM | TGI (HCT-15 colon): 3 µM | GI50 (SF-268 CNS): 1.38 µM | TGI (SF-268 CNS): 9.4 µM | GI50 (SK-MEL-5 melanoma): 1.08 µM | TGI (SK-MEL-5 melanoma): 3.72 µM | GI50 (SK-MEL-28 melanoma): 4.28 µM | TGI (SK-MEL-28 melanoma): 8.54 µM | GI50 (NCI-H460 lung): 2.04 µM | TGI (NCI-H460 lung): 6.4 µM | GI50 (U251 CNS): 3.35 µM | TGI (U251 CNS): 8.09 µM | GI50 (HS 578T breast): 2.22 µM | TGI (HS 578T breast): > 25 µM | GI50 (MOLT-4 leukemia): 2.42 µM | TGI (MOLT-4 leukemia): > 25 µM | GI50 (UO-31 renal): 1.07 µM | TGI (UO-31 renal): 4.29 µM | GI50 (TK-10 renal): 0.894 µM | TGI (TK-10 renal): 3.48 µM | GI50 (MALME-3M melanoma): 1.47 µM | TGI (MALME-3M melanoma): 6.05 µM | GI50 (SK-MEL-2 melanoma): 0.933 µM | TGI (SK-MEL-2 melanoma): 2.92 µM | GI50 (OVCAR-3 ovarian): 2.9 µM | TGI (OVCAR-3 ovarian): 7.59 µM | GI50 (SW-620 colon): 0.815 µM | TGI (SW-620 colon): 2.63 µM | GI50 (CAKI-1 renal): 0.875 µM | TGI (CAKI-1 renal): 6.77 µM | GI50 (M14 melanoma): 0.646 µM | TGI (M14 melanoma): 1.49 µM | GI50 (SNB-75 CNS): 1.12 µM | TGI (SNB-75 CNS): 7.72 µM | GI50 (NCI-H522 lung): 0.378 µM | TGI (NCI-H522 lung): 0.831 µM | GI50 (SK-OV-3 ovarian): 2.9 µM | TGI (SK-OV-3 ovarian): 6.97 µM | GI50 (BT-549 breast): 0.708 µM | TGI (BT-549 breast): 2.25 µM | GI50 (SF-539 CNS): 2.81 µM | TGI (SF-539 CNS): 5.9 µM | GI50 (T-47D breast): 5.1 µM | TGI (T-47D breast): 11 µM | GI50 (ACHN renal): 1.86 µM | TGI (ACHN renal): 6.6 µM | GI50 (PC-3 prostate): 2.68 µM | TGI (PC-3 prostate): 13.9 µM | GI50 (OVCAR-8 ovarian): 1.15 µM | TGI (OVCAR-8 ovarian): > 25 µM | GI50 (OVCAR-4 ovarian): 3.49 µM | TGI (OVCAR-4 ovarian): 10.5 µM | GI50 (COLO 205 colon): 2.87 µM | TGI (COLO 205 colon): 7.17 µM | GI50 (K-562 leukemia): 0.711 µM | TGI (K-562 leukemia): > 25 µM | GI50 (NCI-H23 lung): 0.878 µM | TGI (NCI-H23 lung): 3.72 µM
